A value given as a limit tells only on which side of the number the result lay.

The test system of one series is Plasmodium falciparum. The series is described as follows: Antimalarial activity against blood stage chloroquine-resistant Plasmodium falciparum Dd2 infected in human erythrocytes assessed as inhibition of parasite growth incubated for 72 hrs by SYBR Green I dye based staining analysis. Type of series: functional, organism-based. The conditions noted are these: Dd2, Erythrocyte.
What is called EC50 is the concentration that produces a half-maximal response. `[C-]#[N+]c1ccccc1-c1ccccc1`: the EC50 stood at 10.8 µM.
Turning to `[C-]#[N+]c1ccccc1/C=C(\CC)c1ccccc1`, the EC50 worked out at 10.6 µM.
Same read-out and setting: with `[C-]#[N+]c1ccccc1/C=C(\CCC)c1ccccc1` the figure was 3.06 µM; with `[C-]#[N+]c1ccccc1/C=C(\CCCC)c1ccccc1`, 5.25 µM; with `[C-]#[N+]c1ccccc1C=C(c1ccccc1)c1ccccc1`, 3.62 µM.
The same measure, in the same setting: with `[C-]#[N+]c1ccccc1/C=C(\CC)c1ccc(F)cc1` the figure was 9.84 µM; with `[C-]#[N+]c1ccccc1/C=C(\CC)c1ccc(C(F)(F)F)cc1`, 7.69 µM.
On the same count and under the same terms, for `[C-]#[N+]c1ccccc1/C=C(\CC)c1cccc(C(F)(F)F)c1` the value was 5.41 µM.
`[C-]#[N+]c1ccccc1/C=C/c1ccccc1`: the EC50 was 11.5 µM.
For the compound `[C-]#[N+]c1ccccc1/C=C/c1ccc(OC)cc1`, the EC50 was determined as 3.07 µM.
As to `[C-]#[N+]c1ccccc1/C=C/c1cccc(OC)c1`, the EC50 worked out at 6.45 µM.
Consider `[C-]#[N+]c1ccccc1/C=C/c1ccccc1OC`, for which the EC50 was 21.6 µM.
The same measure, in the same setting: for `[C-]#[N+]c1ccccc1/C=C/c1ccc(F)cc1` the value was 0.56 µM.
With `[C-]#[N+]c1ccccc1/C=C/c1ccccc1F`, the EC50 came to 3.68 µM.
`[C-]#[N+]c1ccccc1/C=C/c1cccc(F)c1`: the EC50 is 12.4 µM.
As to `[C-]#[N+]c1ccccc1/C=C/c1ccc(C(F)(F)F)cc1`, the EC50 was 5.8 µM.
`[C-]#[N+]c1ccccc1/C=C/c1cccc(C(F)(F)F)c1`: the EC50 was 0.27 µM.
Regarding `[C-]#[N+]c1ccccc1/C=C/c1ccccc1C(F)(F)F`, the EC50 amounted to 4.31 µM.
As for `[C-]#[N+]c1ccccc1/C=C/c1ccccn1`, the EC50 is 7.53 µM.
On to `[C-]#[N+]c1cccc(/C=C/c2ccccn2)c1`, for which the EC50 came to 9.73 µM.
Same read-out and setting: for `[C-]#[N+]c1ccc(/C=C/c2ccccn2)cc1` the value was 10.3 µM; for `[C-]#[N+]c1ccccc1/C=C/c1cccnc1`, 13 µM; for `[C-]#[N+]c1cccc(/C=C/c2cccnc2)c1`, 0.69 µM.
On to `[C-]#[N+]c1ccc(/C=C/c2cccnc2)cc1`, for which the EC50 worked out at 5.18 µM.
As to `[C-]#[N+]c1ccccc1/C=C/c1ccncc1`, the concentration for a half-maximal effect (EC50) amounted to 3.7 µM.
Regarding `[C-]#[N+]c1ccc(/C=C/c2ccncc2)cc1`, the EC50 is 0.088 µM.
Same read-out and setting: with `[C-]#[N+]c1cccc(/C=C/c2ccccc2)c1` the figure was 5.32 µM; with `[C-]#[N+]c1ccc(/C=C/c2ccccc2)cc1`, 2.77 µM.
Take `CC/C(=C\c1ccccc1)c1ccccc1`: the EC50 is greater than 100 µM.
`[C-]#[N+]c1ccccc1-c1ccc2ccccc2c1`: the EC50 stood at 6.21 µM.
Same read-out and setting: for `[C-]#[N+]c1ccc(/C=C/c2cc(OC)cc(OC)c2)cc1` the value was 1.62 µM.
Take `[C-]#[N+]c1ccc(/C=C/c2ccc([N+]#[C-])cc2)cc1`: the EC50 was 0.027 µM.
On to `[C-]#[N+]c1ccc(CCc2ccc([N+]#[C-])cc2)cc1`, for which the EC50 came to 0.22 µM.
For `[C-]#[N+]c1ccc(/C=C/c2ccco2)cc1`, the EC50 came out at 2.66 µM.
For the compound `[C-]#[N+]c1ccc(/C=C/c2ccc(Cl)c(Cl)c2)cc1`, the EC50 stood at 3.21 µM.
With `[C-]#[N+]c1ccc(/C=C/c2ccc(OC)cc2)cc1`, the EC50 is 2.27 µM.
On the same count and under the same terms, with `[C-]#[N+]c1ccc(/C=C/c2ccccc2[N+]#[C-])cc1` the figure was 0.068 µM; with `[C-]#[N+]c1ccc(/C=C/c2ccc3ccccc3n2)cc1`, 5.25 µM.
The same measure, in the same setting: for `[C-]#[N+]c1ccc(/C=C/c2ccnc3ccccc23)cc1` the value was 6.98 µM.
As to `[C-]#[N+]c1ccc(/C=C/c2cccc([N+]#[C-])c2)cc1`, the EC50 was 0.266 µM.
Same read-out and setting: with `[C-]#[N+]c1ccc(CCc2ccncc2)cc1` the figure was 0.56 µM.
Turning to `[C-]#[N+]c1ccc(/C=C/c2ccc(C(F)(F)F)cc2)cc1`, the half-maximal effective concentration (EC50) amounted to 2.17 µM.
For `[C-]#[N+]c1ccc(/C=C/c2ccc(F)cc2)cc1`, the EC50 worked out at 4.69 µM.
In the case of `[C-]#[N+]c1ccc(CCc2ccccc2[N+]#[C-])cc1`, the EC50 was 0.44 µM.
In the case of `[C-]#[N+]c1ccc(/C=C/c2cccc(OC)c2)cc1`, the EC50 was determined as 1.01 µM.
As to `[C-]#[N+]c1ccc(CCc2cccc([N+]#[C-])c2)cc1`, the EC50 was 2.75 µM.

In the next series the test system is Plasmodium falciparum. Put plainly: Antimalarial activity against Plasmodium falciparum W2 assessed as inhibition of parasite growth. It counts as functional, organism-based.
Details: not given
Regarding `CC1=C[C@]2(CC1)[C@H](C)CC[C@@H](C(C)C)[C@H]2N=C=S`, the EC50 is 11800 nM.
For `[C-]#[N+][C@@H]1[C@H](C(C)C)CC[C@@H](C)[C@@]12C=C(C)CC2` [AXISONITRILE 3], the EC50 is 71 nM.
On to `[C-]#[N+][C@]1(C)[C@H](C)C[C@@H]2C[C@H](C)[C@H]3CC[C@](C)([N+]#[C-])[C@H]4CC[C@H]1[C@@H]2[C@H]34` [DIISOCYANOADOCIANE], for which the concentration for a half-maximal effect (EC50) was found to be 13 nM.

System in the next series: not listed separately
Put plainly: Selectivity index, ratio of IC50 for cytotoxicity against human KB cells to EC50 for antiplasmodial activity against Plasmodium falciparum W2. Type of series: toxicity, cell-based. The conditions noted are these: read-out: Selectivity Index.
On to `[C-]#[N+][C@]1(C)[C@H](C)C[C@@H]2C[C@H](C)[C@H]3CC[C@](C)([N+]#[C-])[C@H]4CC[C@H]1[C@@H]2[C@H]34` [DIISOCYANOADOCIANE], for which the selectivity ratio is 1000.

System in a further series: not listed separately
The series is described as follows: Selectivity index, ratio of MTD for cytotoxicity against human HaCaT cells to EC50 for antimalarial activity against blood stage chloroquine-resistant Plasmodium falciparum Dd2 infected in human erythrocytes. As to conditions: read-out: Selectivity Index. Type of series: toxicity, cell-based.
With `[C-]#[N+]c1ccc(/C=C/c2ccncc2)cc1`, the selectivity ratio was 1450.
Take `[C-]#[N+]c1ccc(/C=C/c2ccc([N+]#[C-])cc2)cc1`: the selectivity ratio was 4740.
